Measurements reported in ChEMBL document CHEMBL1201862, “PubChem BioAssay data set” (2004).
Active and inactive are the calls of the source.

Key:
Protein skinhead-1 = target: T1, Protein skinhead-1 (Caenorhabditis elegans, UniProt P34707); assay type: functional
T1 sequence (P34707 whole entry): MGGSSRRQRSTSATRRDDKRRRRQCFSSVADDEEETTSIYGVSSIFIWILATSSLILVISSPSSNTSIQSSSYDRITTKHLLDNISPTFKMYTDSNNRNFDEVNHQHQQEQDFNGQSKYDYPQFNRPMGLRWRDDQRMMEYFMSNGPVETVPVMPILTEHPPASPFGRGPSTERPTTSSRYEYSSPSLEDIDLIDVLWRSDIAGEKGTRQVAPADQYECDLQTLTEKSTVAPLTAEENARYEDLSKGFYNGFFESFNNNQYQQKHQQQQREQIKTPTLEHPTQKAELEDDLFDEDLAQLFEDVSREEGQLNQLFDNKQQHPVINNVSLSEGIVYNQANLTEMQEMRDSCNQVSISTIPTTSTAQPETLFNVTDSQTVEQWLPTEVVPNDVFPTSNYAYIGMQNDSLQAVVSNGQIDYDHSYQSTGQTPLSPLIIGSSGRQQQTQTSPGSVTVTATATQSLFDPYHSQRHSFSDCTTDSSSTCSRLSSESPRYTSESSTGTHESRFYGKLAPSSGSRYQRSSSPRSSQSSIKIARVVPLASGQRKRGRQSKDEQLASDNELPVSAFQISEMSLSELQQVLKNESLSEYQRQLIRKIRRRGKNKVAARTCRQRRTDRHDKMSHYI

[1] = target: T2, Short transient receptor potential channel 4 (Mus musculus, UniProt Q9QUQ5); assay: mouse TRPC4 channel inhibitors, dose response, cell-based, HEK293 TRPC4/mu-opioid, Fluo-4 calcium (AID 434942); assay type: functional;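 also: potency of inhibitors blocking the TRPC4 calcium response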
T2 sequence (Q9QUQ5 whole entry): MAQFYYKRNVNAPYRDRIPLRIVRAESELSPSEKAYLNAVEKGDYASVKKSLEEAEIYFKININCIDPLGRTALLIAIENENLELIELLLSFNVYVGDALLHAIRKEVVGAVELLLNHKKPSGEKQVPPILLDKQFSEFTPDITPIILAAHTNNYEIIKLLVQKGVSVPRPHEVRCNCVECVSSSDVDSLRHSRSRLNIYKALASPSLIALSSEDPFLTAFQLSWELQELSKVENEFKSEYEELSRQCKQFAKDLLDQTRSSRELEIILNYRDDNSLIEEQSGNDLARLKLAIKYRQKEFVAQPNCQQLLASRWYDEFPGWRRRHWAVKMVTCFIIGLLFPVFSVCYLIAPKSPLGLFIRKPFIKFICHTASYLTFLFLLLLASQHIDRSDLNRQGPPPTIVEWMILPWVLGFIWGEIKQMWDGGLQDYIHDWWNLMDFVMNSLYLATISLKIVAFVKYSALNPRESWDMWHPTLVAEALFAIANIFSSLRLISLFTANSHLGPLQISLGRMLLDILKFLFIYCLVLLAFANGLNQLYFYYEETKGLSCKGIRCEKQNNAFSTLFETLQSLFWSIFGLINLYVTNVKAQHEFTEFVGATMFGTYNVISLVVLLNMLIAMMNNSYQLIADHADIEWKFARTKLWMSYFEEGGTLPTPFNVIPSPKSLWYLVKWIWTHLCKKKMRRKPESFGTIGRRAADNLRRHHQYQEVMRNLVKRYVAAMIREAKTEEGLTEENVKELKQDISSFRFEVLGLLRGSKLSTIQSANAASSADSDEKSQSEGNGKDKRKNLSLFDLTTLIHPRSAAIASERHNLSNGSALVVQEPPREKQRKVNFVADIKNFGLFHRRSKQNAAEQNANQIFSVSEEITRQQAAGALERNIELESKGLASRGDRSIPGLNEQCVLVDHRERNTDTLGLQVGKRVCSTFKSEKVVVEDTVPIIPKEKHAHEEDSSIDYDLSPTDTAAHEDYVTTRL

Coagulation factor XII = target: T3, Coagulation factor XII (Homo sapiens, UniProt P00748); assay type: functional;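 also: activated factor XIIa alpha cleaving a fluorogenic AMC peptide substrate; inhibitor potency from loss of enzyme activity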
T3 sequence (P00748 whole entry): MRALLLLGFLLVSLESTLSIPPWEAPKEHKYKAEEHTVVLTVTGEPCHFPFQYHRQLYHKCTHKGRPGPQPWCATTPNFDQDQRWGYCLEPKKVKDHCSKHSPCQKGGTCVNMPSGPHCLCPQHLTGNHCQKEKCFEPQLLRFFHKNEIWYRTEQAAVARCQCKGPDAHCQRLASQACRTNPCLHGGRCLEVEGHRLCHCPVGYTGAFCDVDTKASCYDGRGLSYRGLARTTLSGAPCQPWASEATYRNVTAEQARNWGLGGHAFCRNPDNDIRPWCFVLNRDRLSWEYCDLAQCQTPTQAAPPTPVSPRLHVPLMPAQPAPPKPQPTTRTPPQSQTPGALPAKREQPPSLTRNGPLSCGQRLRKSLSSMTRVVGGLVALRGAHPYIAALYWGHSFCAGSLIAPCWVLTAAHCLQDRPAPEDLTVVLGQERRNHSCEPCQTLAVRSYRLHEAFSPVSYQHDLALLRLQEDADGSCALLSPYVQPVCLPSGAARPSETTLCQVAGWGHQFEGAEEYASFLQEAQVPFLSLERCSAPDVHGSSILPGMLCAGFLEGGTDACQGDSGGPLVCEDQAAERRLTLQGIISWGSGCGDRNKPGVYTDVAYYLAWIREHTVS

[2] = inhibitors of HIV Env-driven cell fusion, dose response, cherry-pick (AID 652057); assay type: functional, cell-based
[3] = inhibitors of clade B AD8 Env fusion, dose response, cell-based, cherry-pick (AID 652062); assay type: functional;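 also: luciferase signal from cell-cell fusion driven by HIV-1 clade B AD8 Env; potency is for inhibitors of fusion seen as a drop in luminescence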
[4] = off-target signal loss in HeLa-CEM21 co-culture – HeLa F-luc CTL cells, cherry-picked, counter-screen for HIV-1 Env fusion inhibitor project, dose response (AID 652040); assay type: functional, cell-based;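 also: potency for signal decrease marking cytotoxic or nonspecific inhibition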
[5] = ZM109 Env clade C HIV-1 fusion inhibitors, dose response, HeLa effector, CEM target cells, luciferase, cherry-pick (AID 652058); assay type: functional, cell-based
[6] = target: Peroxisome proliferator-activated receptor gamma/Nuclear receptor coactivator 1 (Homo sapiens, UniProt P37231); assay type: functional;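 also: agonist potency as compounds enhance coactivator SRC-1 recruitment to PPARgamma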
[7] = target: Peroxisome proliferator-activated receptor gamma/Nuclear receptor coactivator 3 (Homo sapiens, UniProt P37231); assay type: functional;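 also: agonist potency for raising coactivator recruitment to the receptor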
[8] = target: Peroxisome proliferator-activated receptor gamma/Nuclear receptor coactivator 2 (Homo sapiens, UniProt P37231); assay type: functional;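 also: agonist potency for raising coactivator recruitment to the receptor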
BJ [9] = assay: cytotoxicity toward BJ-TERT fibroblasts, dose response, cell-based, RAS-independent, luminescence (AID 1933); assay type: functional; details: Homo sapiens
[10] = cytotoxicity toward DRD oncogenic fibroblasts, dose response, cell-based, non-viral oncogenic, luminescence (AID 1934); assay type: functional; details: Homo sapiens
BJ [11] = assay: cytotoxicity toward BJ-TERT-LT-ST fibroblasts, dose response, cell-based, RAS-independent, luminescence (AID 1935); assay type: functional; details: Homo sapiens;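 also: BJ fibroblasts immortalized with TERT plus LT and ST oncogenes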
BJ [12] = assay: cells; assay type: functional, cell-based; details: Homo sapiens
[13] = Luminescence Cell-Based Dose Response HTS to Identify Activators of Luciferase Translation or Activity in H4 […] Cells. [Related pubchem assays: 1829 (Project Summary), 1814 (Primary HTS)]; assay type: functional
H4 = assay: Luminescence Cell-Based Dose Response HTS to Identify Activators of 5'UTR Stem-Loop Driven Prion Protein mRNA Translation in H4 Neuroglioblastoma Cells. [Related pubchem assays: 1829 (Project Summary), 1814 (Primary HTS)]; assay type: functional; details: Homo sapiens
Cytochrome P450 3A4 = Cytochrome P450 3A4 (Homo sapiens, UniProt P08684);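 also: CYP3A4 tested as one member of a cytochrome P450 panel screen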
[14] = intracellular Trypanosoma cruzi inhibitors in host cells – cell-based, plate reader, cherry-pick samples, set 3, dose response (AID 651818); assay type: functional;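 also: compounds incubated with infected cells for about four days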
Paired box protein Pax-8 = Paired box protein Pax-8 (Homo sapiens, UniProt Q06710); assay: inhibitors of PAX8-driven TPO luciferase reporter, dose response, RMG-I cells, cherry-pick (AID 687027); assay type: functional, cell-based;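 also: luciferase reporter driven by Pax8 target thyroperoxidase promoter measured by SteadyGlo luminescence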
Paired box protein Pax-8, sequence (Q06710 whole entry): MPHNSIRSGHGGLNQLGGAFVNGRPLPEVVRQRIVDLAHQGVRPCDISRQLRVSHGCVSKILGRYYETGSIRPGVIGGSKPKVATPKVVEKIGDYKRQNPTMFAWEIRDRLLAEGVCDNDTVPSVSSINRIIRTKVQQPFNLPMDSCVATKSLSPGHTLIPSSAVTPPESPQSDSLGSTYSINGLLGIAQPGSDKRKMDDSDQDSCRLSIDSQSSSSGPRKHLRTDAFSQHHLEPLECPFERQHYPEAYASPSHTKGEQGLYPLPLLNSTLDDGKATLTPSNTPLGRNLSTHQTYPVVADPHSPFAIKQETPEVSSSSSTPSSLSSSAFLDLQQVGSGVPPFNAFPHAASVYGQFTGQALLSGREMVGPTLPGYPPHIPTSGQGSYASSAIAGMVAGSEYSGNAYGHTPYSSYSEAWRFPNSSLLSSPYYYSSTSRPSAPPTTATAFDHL

Peroxisome proliferator-activated receptor gamma/Nuclear receptor coactivator 2, sequence (P37231 whole entry): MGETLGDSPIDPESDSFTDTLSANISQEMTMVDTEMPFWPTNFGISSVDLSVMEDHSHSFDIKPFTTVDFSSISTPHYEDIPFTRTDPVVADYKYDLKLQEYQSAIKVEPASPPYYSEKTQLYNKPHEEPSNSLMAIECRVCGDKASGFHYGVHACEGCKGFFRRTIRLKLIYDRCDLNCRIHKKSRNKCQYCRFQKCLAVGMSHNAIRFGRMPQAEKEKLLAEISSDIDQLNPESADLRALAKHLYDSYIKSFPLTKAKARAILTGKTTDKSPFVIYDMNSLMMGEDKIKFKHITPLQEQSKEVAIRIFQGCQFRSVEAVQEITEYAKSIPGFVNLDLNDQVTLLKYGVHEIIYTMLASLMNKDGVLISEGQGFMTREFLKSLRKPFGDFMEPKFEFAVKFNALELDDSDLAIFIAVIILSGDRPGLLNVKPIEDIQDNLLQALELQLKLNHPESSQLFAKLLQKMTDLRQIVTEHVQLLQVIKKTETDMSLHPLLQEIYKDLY
Peroxisome proliferator-activated receptor gamma/Nuclear receptor coactivator 2, sequence (Q15596 whole entry, further chain): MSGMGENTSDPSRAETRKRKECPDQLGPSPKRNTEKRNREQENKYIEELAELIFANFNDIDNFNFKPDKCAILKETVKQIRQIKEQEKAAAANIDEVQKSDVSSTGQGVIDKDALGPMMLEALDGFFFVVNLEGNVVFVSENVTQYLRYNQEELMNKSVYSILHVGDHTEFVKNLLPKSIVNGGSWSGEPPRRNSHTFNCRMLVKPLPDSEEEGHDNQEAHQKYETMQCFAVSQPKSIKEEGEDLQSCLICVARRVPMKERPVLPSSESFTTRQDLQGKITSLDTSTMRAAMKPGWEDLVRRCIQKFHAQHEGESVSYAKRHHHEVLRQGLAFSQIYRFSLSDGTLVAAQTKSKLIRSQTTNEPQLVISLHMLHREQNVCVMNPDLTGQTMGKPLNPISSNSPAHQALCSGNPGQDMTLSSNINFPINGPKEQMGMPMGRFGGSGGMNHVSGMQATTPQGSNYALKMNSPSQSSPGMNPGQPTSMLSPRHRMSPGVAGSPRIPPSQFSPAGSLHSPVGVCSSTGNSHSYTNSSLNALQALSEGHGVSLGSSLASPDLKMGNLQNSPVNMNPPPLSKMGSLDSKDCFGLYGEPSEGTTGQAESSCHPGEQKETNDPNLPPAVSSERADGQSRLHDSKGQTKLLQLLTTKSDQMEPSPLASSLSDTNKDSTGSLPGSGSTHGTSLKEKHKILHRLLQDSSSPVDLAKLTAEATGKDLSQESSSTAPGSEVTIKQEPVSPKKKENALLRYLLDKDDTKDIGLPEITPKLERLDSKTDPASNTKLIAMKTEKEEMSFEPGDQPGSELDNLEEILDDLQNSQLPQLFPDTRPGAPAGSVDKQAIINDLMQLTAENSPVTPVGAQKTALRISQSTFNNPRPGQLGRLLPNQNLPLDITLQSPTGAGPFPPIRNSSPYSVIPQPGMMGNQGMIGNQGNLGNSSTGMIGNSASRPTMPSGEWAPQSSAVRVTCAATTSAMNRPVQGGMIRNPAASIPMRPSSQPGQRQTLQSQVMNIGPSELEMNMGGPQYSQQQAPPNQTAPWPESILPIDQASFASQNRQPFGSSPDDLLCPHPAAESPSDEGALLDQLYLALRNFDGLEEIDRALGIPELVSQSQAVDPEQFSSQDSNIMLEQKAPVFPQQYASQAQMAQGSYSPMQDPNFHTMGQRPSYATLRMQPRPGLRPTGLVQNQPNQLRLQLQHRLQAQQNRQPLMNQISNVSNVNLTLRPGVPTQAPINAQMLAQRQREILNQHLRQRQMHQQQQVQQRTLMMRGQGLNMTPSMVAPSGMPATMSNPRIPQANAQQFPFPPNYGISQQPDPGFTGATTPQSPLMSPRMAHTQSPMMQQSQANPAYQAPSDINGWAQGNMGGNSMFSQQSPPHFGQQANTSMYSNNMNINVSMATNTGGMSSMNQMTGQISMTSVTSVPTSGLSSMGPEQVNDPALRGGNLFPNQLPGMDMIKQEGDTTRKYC
Peroxisome proliferator-activated receptor gamma/Nuclear receptor coactivator 1, sequence (P37231 whole entry): as the sequence (P37231 whole entry) above
Peroxisome proliferator-activated receptor gamma/Nuclear receptor coactivator 1, sequence (Q15788 whole entry, further chain): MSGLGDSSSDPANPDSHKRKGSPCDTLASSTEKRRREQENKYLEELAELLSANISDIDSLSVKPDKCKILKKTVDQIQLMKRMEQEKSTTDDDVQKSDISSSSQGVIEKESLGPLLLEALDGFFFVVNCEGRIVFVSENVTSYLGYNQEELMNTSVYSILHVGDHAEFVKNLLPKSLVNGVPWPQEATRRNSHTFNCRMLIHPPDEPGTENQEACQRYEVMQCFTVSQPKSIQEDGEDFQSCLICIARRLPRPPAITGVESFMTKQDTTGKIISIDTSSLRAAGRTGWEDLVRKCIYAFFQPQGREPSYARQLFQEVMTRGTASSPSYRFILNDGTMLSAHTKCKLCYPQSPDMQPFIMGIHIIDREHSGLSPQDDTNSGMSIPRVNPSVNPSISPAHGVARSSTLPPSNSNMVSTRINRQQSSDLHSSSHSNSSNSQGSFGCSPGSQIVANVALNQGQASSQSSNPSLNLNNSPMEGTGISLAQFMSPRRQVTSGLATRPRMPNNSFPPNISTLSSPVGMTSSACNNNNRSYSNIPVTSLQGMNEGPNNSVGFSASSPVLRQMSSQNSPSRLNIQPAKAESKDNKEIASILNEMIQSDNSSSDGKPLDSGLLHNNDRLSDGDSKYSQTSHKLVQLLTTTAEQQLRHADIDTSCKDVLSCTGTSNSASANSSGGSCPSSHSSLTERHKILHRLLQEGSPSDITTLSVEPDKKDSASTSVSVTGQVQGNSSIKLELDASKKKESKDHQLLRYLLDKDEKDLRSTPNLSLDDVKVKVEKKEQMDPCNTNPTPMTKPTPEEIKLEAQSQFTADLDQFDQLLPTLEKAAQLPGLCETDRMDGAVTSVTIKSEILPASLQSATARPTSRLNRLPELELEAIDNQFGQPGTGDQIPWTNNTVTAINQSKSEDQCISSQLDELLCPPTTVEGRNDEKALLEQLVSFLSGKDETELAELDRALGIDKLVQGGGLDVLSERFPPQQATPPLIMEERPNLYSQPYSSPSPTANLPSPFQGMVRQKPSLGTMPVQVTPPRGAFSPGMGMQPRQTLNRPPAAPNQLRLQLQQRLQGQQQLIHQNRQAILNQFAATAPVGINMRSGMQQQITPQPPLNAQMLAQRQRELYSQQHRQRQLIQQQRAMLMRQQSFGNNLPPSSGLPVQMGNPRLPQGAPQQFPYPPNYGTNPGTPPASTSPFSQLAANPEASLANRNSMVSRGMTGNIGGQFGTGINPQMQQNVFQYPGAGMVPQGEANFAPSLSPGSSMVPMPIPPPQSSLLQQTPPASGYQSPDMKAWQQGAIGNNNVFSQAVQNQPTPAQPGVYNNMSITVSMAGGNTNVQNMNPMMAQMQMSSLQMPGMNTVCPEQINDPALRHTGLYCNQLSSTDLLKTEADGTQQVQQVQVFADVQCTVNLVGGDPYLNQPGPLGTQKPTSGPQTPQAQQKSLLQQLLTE
Cytochrome P450 3A4, sequence (P08684 whole entry): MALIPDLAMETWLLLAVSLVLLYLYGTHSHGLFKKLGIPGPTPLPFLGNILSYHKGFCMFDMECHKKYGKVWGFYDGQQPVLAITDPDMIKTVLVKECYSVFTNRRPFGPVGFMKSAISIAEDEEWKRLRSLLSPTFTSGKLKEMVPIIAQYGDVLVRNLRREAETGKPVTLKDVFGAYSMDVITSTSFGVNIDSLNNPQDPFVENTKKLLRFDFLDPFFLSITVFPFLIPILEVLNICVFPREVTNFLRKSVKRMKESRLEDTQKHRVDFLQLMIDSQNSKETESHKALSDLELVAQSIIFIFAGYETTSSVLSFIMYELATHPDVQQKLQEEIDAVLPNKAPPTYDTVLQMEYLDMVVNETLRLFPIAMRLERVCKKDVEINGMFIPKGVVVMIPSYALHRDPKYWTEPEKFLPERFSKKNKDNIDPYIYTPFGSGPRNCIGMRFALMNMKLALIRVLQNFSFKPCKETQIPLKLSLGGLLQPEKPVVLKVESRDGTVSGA

CC(=O)Nc1cc(NC(C)=O)cc(C(=O)OCC(=O)N2CC(C)OC(C)C2)c1 (centres undefined)
IC50 (Protein skinhead-1): > 100 µM (inactive)

Clc1ccc(CSc2ccc(-c3cccnc3)nn2)cc1
IC50 (Protein skinhead-1): 83.9 µM (inactive)

Cc1ccc(-n2cccn2)c(CN2CCCC(C(=O)c3ccc4c(c3)OCO4)C2)c1 (centres undefined)
EC50 [1]: 7.5 µM (active)

FCCCOc1ccc(-c2ccnc(-c3ccccc3)n2)cc1
IC50 (Protein skinhead-1): 52.3 µM (inactive)

CCc1nnc(NC(=O)CCC(=O)N2CCN(CCOc3ccc(C)cc3)CC2)s1
IC50 (Coagulation factor XII): > 50 µM (inactive)

O=C(Nc1ccc(F)cc1)C1CCCN1S(=O)(=O)c1ccc(Br)cc1 (centres undefined)
AC50 [2]: 7.75 µM (active) | AC50 [3]: 16.3 µM (active) | AC50 [4]: 14.5 µM (active) | AC50 [5]: 6.89 µM (active)

COc1ccc(Cl)cc1N=C(S)NNC(=O)C1(C)CC1(Cl)Cl (centres undefined)
IC50 (Coagulation factor XII): > 50 µM (inactive)

COc1cccc(C2=NN(C(=O)c3ccco3)C(c3ccco3)C2)c1 (centres undefined)
EC50 [1]: 1.88 µM (active)

COc1ccc(C2CC(=O)c3c([nH]c(C(=O)OC(C)C)c3C)C2)cc1OC (centres undefined)
EC50 [6]: > 79.4 µM (not active) | EC50 [7]: > 79.4 µM (not active) | EC50 [8]: > 79.4 µM (not active)

CCCn1c(=S)[nH]c2cc(C(=O)N3CCCC(C(=O)OCC)C3)ccc2c1=O (centres undefined)
AC50 [3]: 23.2 µM (active) | AC50 [4]: > 70 µM (inactive)

O=C1c2cccnc2C(Nc2ccc(S(=O)(=O)N3CCCCC3)cc2)N1Cc1ccccc1 (centres undefined)
AC50 [2]: 7.23 µM (active) | AC50 [4]: 58.9 µM (active)

CC(C)(C)n1nnnc1C(c1cccs1)N(Cc1cccnc1)Cc1ccco1 (centres undefined)
AC50 [2]: 3.99 µM (active) | AC50 [3]: 7.08 µM (active) | AC50 [4]: 15.2 µM (active) | AC50 [5]: 4.74 µM (active)

COc1ccc(C(=O)c2cc([N+](=O)[O-])ccc2N2CCCC2)cc1
EC50 (BJ [9]): 13 µM (active) | EC50 [10]: 3.06 µM (active) | EC50 (BJ [11]): 3.87 µM (inconclusive) | EC50 (BJ [12]): 58.2 µM (active)

O=C(COC(=O)C1CC1)Nc1nc(-c2ccc(F)c(F)c2)cs1
EC50 [1]: 2.99 µM (active)

Fc1cccc(CSc2ccc(-c3ccco3)nn2)c1
EC50 [13]: 49.2 µM (active) | IC50 (Protein skinhead-1): > 100 µM (inactive) | EC50 (H4): 8.43 µM (active)

CCOCCCn1cnc2c(c1=O)c1nc3ccccc3nc1n2-c1ccccc1
IC50 (Coagulation factor XII): > 50 µM (inactive) | AC50 (Cytochrome P450 3A4): 20 µM (inconclusive)

COC(=O)c1cccc(NC(=O)CSc2nnc[nH]2)c1
IC50 (Coagulation factor XII): > 50 µM (inactive)

COc1ccc(CN(Cc2ccc(OC)cc2)C(=O)c2cccs2)cc1
IC50 (Coagulation factor XII): > 50 µM (inactive)

Cc1nc2ccccc2n1CCOc1ccc(F)cc1
EC50 [1]: 0.376 µM (active)

Nc1nc(C2CCCN2S(=O)(=O)c2ccc(Cl)cc2)cs1 (centres undefined)
EC50 [6]: > 79.4 µM (not active) | EC50 [7]: > 79.4 µM (not active) | EC50 [8]: > 79.4 µM (not active)

O=C(c1ccccc1)c1cc([N+](=O)[O-])ccc1N1CCCC1
EC50 (BJ [9]): > 150 µM (not active) | EC50 [10]: > 150 µM (not active) | EC50 (BJ [11]): > 150 µM (not active) | EC50 (BJ [12]): > 150 µM (not active)

CCCC(=O)NNC(=O)c1ccoc1C
IC50 (Coagulation factor XII): > 50 µM (inactive)

C[C@@H]1CCCCO[C@H](CN(C)Cc2ccc(C(F)(F)F)cc2)[C@@H](C)CN([C@H](C)CO)C(=O)c2cc(NC(=O)Nc3ccccc3)ccc2O1
AC50 [14]: 4.7 µM (active)

C[C@@H]1CCCCO[C@@H](CN(C)Cc2ccc(C(F)(F)F)cc2)[C@@H](C)CN([C@H](C)CO)C(=O)c2cc(NC(=O)Nc3ccc(F)cc3)ccc2O1
AC50 [14]: 6.87 µM (active)

C[C@@H]1CCCCO[C@@H](CN(C)C(=O)NC2CCCCC2)[C@@H](C)CN([C@H](C)CO)C(=O)c2cc(NC(=O)Nc3ccc(C(F)(F)F)cc3)ccc2O1
AC50 [14]: 4.12 µM (active)

Cc1cccc(S(=O)(=O)N2CC[C@@H]3[C@H](CO)Nc4ccc(C5=CCCCC5)cc4[C@@H]32)c1
AC50 (Paired box protein Pax-8): 10.9 µM (active)

O=C(C[C@@H]1CC[C@@H]2[C@H](COC[C@H](O)CN2S(=O)(=O)c2cccc(Cl)c2)O1)Nc1ccc(-c2ccccc2)cc1
AC50 (Paired box protein Pax-8): 9.87 µM (active)

C[C@H]1CN([C@@H](C)CO)C(=O)c2cc(NS(=O)(=O)c3ccc(F)cc3)ccc2O[C@H]1CN(C)S(=O)(=O)c1ccc(F)cc1
AC50 [5]: 42.4 µM (active)

C[C@@H]1CCCCO[C@H](CN(C)Cc2ccncc2)[C@H](C)CN([C@@H](C)CO)C(=O)c2cc(NC(=O)Nc3ccc(C(F)(F)F)cc3)ccc2O1
AC50 (Paired box protein Pax-8): 13.6 µM (active)

COc1cccc2cc(C(N)=O)/c(=N\NC(=O)c3ccccc3)oc12
EC50 [1]: 0.188 µM (active)

CCOC(=O)c1s/c(=N\C(=O)c2ccc(OC(C)C)cc2)n(C)c1C
EC50 [6]: 18.3 µM (not active) | EC50 [7]: 20.3 µM (not active) | EC50 [8]: 16.2 µM (not active)
